# Data from patent publication US5948913A, “Hydrate for drug use” (Daiichi Pharmaceutical Co., Ltd., priority 1994, dated 1999).
# Structures can show the parent of a compound that is named as a salt. Where two headings read alike, the source gives them in different places.
# Legend:
# [1] = in vivo
# Description: (§1) With regard to the toxicity, its oral single administration toxicity was 200 mg/kg or more, and serious side effects were not observed in rats by repeated oral administration toxicity test over 10 days and repeated intravenous injection toxicity test over 10 days.
# rats = conditions: rat, in vivo
# Description: as §1
# dogs = assay: Actions upon hemodynamics and electrocardiogram; format: in vivo, dog
# Description: (§2) Particularly serious actions upon hemodynamics and electrocardiogram were not observed in dogs, and significant central nervous inhibition actions were not observed in rhesus monkeys even when a dose of 10 mg/kg was administered by intravenous injection.
# rhesus monkeys = assay: Central nervous inhibition actions; format: in vivo, rhesus monkey; conditions: 10 mg/kg intravenous injection
# Description: as §2
# [2] = target: calmodulin-dependent phosphodiesterase (PDE); assay: Calmodulin inhibition action (calmodulin-dependent phosphodiesterase inhibition); format: biochemical; conditions: CaM and CaM-PDE of bovine brain origin, [3H]-cGMP, 30° C., 10 minutes; read-out: PDE inhibition effect, IC50
# [3] = tested on: mouse nitrogen-loaded hypoxia model; assay: Mouse nitrogen-loaded hypoxia model; format: in vivo; conditions: mice, 30 mg/kg oral, 60 minutes before nitrogen gas feeding
# Description: This test was carried out in accordance with the method of Albert Wauquier et al. (Japan J. Pharmacol., 38, 1-7 (1985)).
# A total of 9 to 10 mice were used in 1 group, and each animal 60 minutes after oral administration of a drug to be tested (30 mg/kg) was put into a transparent container (500 ml capacity) equipped with an air outlet and then the container was fed with nitrogen gas at a rate of 5.0 L/min. The period of time from the commencement of gas feeding until respiratory arrest was measured.
# [4] = tested on: hippocampus CA1 nerve cells; assay: Changes in hippocampus nerve cells in cerebral ischemia model; format: in vivo; conditions: jird, 5 minutes cerebral ischemia, 100 mg/kg oral 1 hour after ischemia loading
# Description: When transient cerebral ischemia is loaded on a jird, hippocampus nerve cells start to get necrosis several days thereafter, and such a change is called delayed nerve cell death. The following test was carried out in accordance with the method of T. Kirino (Brain Res., 239, 57-69 (1982)). That is, each jird was loaded with 5 minutes of cerebral ischemia and then sacrificed to count the number of nerve cells remained in the hippocampus CA1 region.
# [5] = tested on: rat microsphere cerebral embolus model; assay: Anti-edema effect in rat microsphere cerebral embolus model; format: in vivo; conditions: 8 hr, intravenous infusion, 24 hours after operation
# Description: This test was carried out in accordance with the method of Nobutaka Demura et al. (Neuroscience Res., 17, 23-30 (1983)).
# Under halothane anesthesia, a Slc;Wis rat (about 300 g) which has been treated with caudal vein cannulation in advance was subjected to neck incision to tear off the left side common carotid artery. Wing process palate artery and external carotid artery on the same side were also torn off and subjected to artery clipping. Carbon microspheres (50±10 μm in diameter) were suspended in 20% dextran and injected into the left side common carotid artery to effect dispersion of the microspheres in the left cerebral hemisphere via the left internal carotid artery, the common carotid artery was immediately clipped to stop bleeding from the microsphere-injected part, and then the artery clip was removed to restart blood circulation. Thereafter, each drug solution was continuously injected using an infusion pump from the catheter which has been inserted into caudal vein.
# Each animal was sacrificed by decapitation 24 hours after the operation, and the brain was excised immediately after the decapitation to measure wet weights of both left and right hemispheres. Each tissue was then dried overnight at 150° C. to measure its dry weight and to calculate water content of each hemisphere.
# As a control group, a vehicle group (20% dextran only) was arranged and treated in the same manner.
# [6] = Weight / moisture change as a function of humidity; format: physicochemical
# Description: On the other hand, when methanol was used as the solvent at the time of crystal precipitation, the thus obtained hydrochloride anhydrate of the compound of formula (1) also contained methanol, but it was able to remove the contained methanol almost completely when the crystals were dried with heating (120° C.) under a reduced pressure for several days or more.
# (§3) (FIG. 2). Also, changes in its appearance were hardly found and its changes in the content (determination by HPLC) were not found under dry heating conditions (50° C., tightly sealed in a bottle, 1 month) or wet heating conditions (40° C., 75% humidity, 1 month).
# FIG. 1 is a graph showing changes in the weight of 3-[2-[4-(3-chloro-2-methylphenyl)-1-piperazinyl]ethyl]-5,6-dimethoxy-1-(4- imidazolylmethyl)-1H-indazole hydrochloride anhydrate plotted as a function of humidity,
# FIG. 2 is a graph showing changes in the weight of the 3.5-hydrate of the present invention plotted as a function of humidity, […]
# [7] = Storage stability under dry heating and wet heating conditions; format: physicochemical
# Description: as §3
# [8] = dry heating conditions (50° C., tightly sealed in a bottle, 1 month)
# [9] = wet heating conditions (40° C., 75% humidity, 1 month)
smiles,measurement,setting,value
"COc1cc2c(CCN3CCN(c4cccc(Cl)c4C)CC3)nn(Cc3c[nH]cn3)c2cc1OC [compound of the present invention, 3-[2-[4-(3-chloro-2-methylphenyl)-1-piperazinyl]ethyl]-5,6-dimethoxy-1-(4-imidazolylmethyl)-1H-indazole]",oral single administration toxicity,[1],≥ 200 mg/kg
same,serious side effects,rats; iv,not observed
same,serious side effects,rats; po,not observed
same,particularly serious actions upon hemodynamics and electrocardiogram,dogs,not observed
same,significant central nervous inhibition actions,rhesus monkeys,not observed
same,IC50,[2],5.46 µM
same,increasing ratio of time until respiratory arrest (control group defined as 100%),[3],15.1%
same,protecting effect against nerve cell death,[4],distinct protecting effect
same,Hippocampus Nerve Cell Density,[4]; CA1 region,131 ± 21.2 cells/mm
same,"Water content, Control Side (right hemisphere)",[5]; dose 1 mg/kg/hr,78.8 ± 0.1%
same,"Water content, Disease Side (left hemisphere)",[5]; dose 1 mg/kg/hr,80.1 ± 0.4%
same,"Water content, Control Side (right hemisphere)",[5]; dose 2 mg/kg/hr,78.7 ± 0.1%
same,"Water content, Disease Side (left hemisphere)",[5]; dose 2 mg/kg/hr,79.8 ± 0.3%
"COc1cc2c(CCN3CCN(c4cccc(Cl)c4C)CC3)nn(Cc3c[nH]cn3)c2cc1OC [Inventive Example 2, 3-[2-[4-(3-Chloro-2-methylphenyl)-1-piperazinyl]ethyl]-5,6-dimethoxy-1-(4-imidazolylmethyl)-1H-indazole 1.5-hydrochloride (anhydrous crystals)]",moisture absorption in response to environmental humidity,"[6]; room temperature, anhydrate after removal of methanol, FIG. 1",absorb moisture in response to the environmental humidity
"COc1cc2c(CCN3CCN(c4cccc(Cl)c4C)CC3)nn(Cc3c[nH]cn3)c2cc1OC [Inventive Example 3, 3-[2-[4-(3-Chloro-2-methylphenyl)-1-piperazinyl]ethyl]-5,6-dimethoxy-1-(4-imidazolylmethyl)-1H-indazole dihydrochloride 3.5-hydrate]",changes in powder X-ray diffraction pattern or detectable water content,"[6]; relative humidity changed from about 20% to about 80% at 25° C., FIG. 2",did not show changes
same,changes in appearance,[7]; [8],hardly found
same,changes in the content (determination by HPLC),[7]; [8],not found
same,changes in appearance,[7]; [9],hardly found
same,changes in the content (determination by HPLC),[7]; [9],not found
